Where “and” joins values, the source holds several entries; their conditions need not be identical. Identical values can stand only once.

For assay [1], the system named is A53T a-syn or EV rats. In words: Cylinder test, forelimb asymmetry. The note with it: for Forelimb asymmetry in cylinder test: individual rats. On the set-up: Forelimb asymmetry in cylinder test: scale not given here. Type of assay: in vivo, rat. Here is the method: Animals were secured in a stereotactic frame under isoflurane/oxygen anesthesia and ketoprofen (5 mg/kg) analgesia. The surgical site was shaved and sterilized with iodine/betadine prior to making a 2 cm incision along the midline. The scalp was exposed and a unilateral injection targeting the SN was performed at coordinates AP −5.2 mm, ML −2 mm and DV −7.5 mm with respect to the bregma as a point of reference. For each animal, a total volume of 2 μl of virus was injected at a rate of 0.5 μl/min using a microinjection pump and 10 μl Hamilton syringe with a 26-gauge needle. For A53T groups, 1 μl (low dose) or 1.34 μl (high dose) of AAV1/2-A53T a-syn (5.1 × 10^12 genomic particles/ml), 0.14 μl of AAV1/2-PDpep1.3-GFP or Scramble1.3-GFP (5.1 × 10^12 genomic particles/ml) and 0.86 μl or 0.52 μl of sterile PBS was injected; for EV groups, 1 μl (low dose) or 1.34 μl (high dose) of AAV1/2-EV (5.1 × 10^12 genomic particles/ml) replaced AAV1/2-A53T. For V1S/SV2 groups, 0.58 μl of AAV1/2-V1S (1.1 × 10^12 genomic particles/ml), 0.58 μl of AAV1/2-SV2 (1.1 × 10^12 genomic particles/ml), 0.14 μl of AAV1/2-PDpep1.3-RFP or Scramble1.3-RFP (5.1 × 10^12 genomic particles/ml) and 0.7 μl of sterile PBS was injected; for the YFP groups, 1.16 μl of AAV1/2-YFP (1.1 × 10^12 genomic particles/ml), 0.14 μl of AAV1/2-PDpep1.3-RFP or Scramble1.3-RFP (5.1 × 10^12 genomic particles/ml) and 0.7 μl of sterile PBS was injected. At the end of virus injection, the needle remained in place for 5 min before gradual removal.
Spontaneous forepaw use was evaluated using the cylinder test 1 day prior to stereotactic AAV injection, at 21 days post-injection, and at 41 days post-injection. Following overnight food restriction, individual rats with right paws marked black were placed into a glass cylinder in front of two mirrors and videos recorded. An observer blinded to treatment conditions later scored the videos by recording whether animals used their left forepaw, right forepaw, or both forepaws to touch the inner glass surface upon rearing. A total of 5 min of video recording was scored and a minimum of 10 total touches was required for data inclusion.

For assay [2], the system named is A53T a-syn or EV rats. Put plainly: AAV-A53T a-syn rat model, high titer, TH+ neurons. Type of assay: in vivo. The following applies: 6 weeks. From the text:
Third, we used a preclinical rat model of PD in which SN degeneration is induced by AAV vector-mediated expression of human mutant A53T a-syn[18],[45]–[48] (Fig. 5A). […] (Fig. 5B, C). […] Furthermore, overexpression of A53T a-syn was associated with a reduction in LAMP1 positive puncta in the SN which was restored with PDpep1.3 (Figs. 5E, S5E). […] Forelimb asymmetry in the cylinder test is a behavioral impairment associated with SN degeneration which models bradykinesia, the cardinal motor abnormality in PD[49].
Adult female Sprague-Dawley rats (250–280 g; Envigo) were pair-housed in cages with wood bedding and had access to food and water ad libitum. […]
Immunofluorescence staining for a-syn, pS129 a-syn, TH, and LAMP1 was performed by washing free-floating sections with PBS-T (0.1% Tween-20 or 0.2% Triton-X-100) three times for 10 min each at room temperature. […] Sections were then mounted onto glass slides and allowed to dry and then Dako fluorescence mounting medium (Agilent) was applied, followed by coverslips.
Confocal images of immunofluorescent staining of midbrain sections were processed using HALO software (Indica Labs), which is a well validated tool for automatic quantification of neurons in brain tissue sections[70]–[72]. […] Levels of total a-syn were assessed in this ROI by measuring the area and intensity of anti-a-syn staining. […]

Assay [3] deals with A53T a-syn or EV rats. Put plainly: Striatal catecholamines by HPLC. The following applies: A53T high titer. Type of assay: in vivo, rat. The method, then:
Animals were secured in a stereotactic frame under isoflurane/oxygen anesthesia and ketoprofen (5 mg/kg) analgesia. The surgical site was shaved and sterilized with iodine/betadine prior to making a 2 cm incision along the midline. The scalp was exposed and a unilateral injection targeting the SN was performed at coordinates AP −5.2 mm, ML −2 mm and DV −7.5 mm with respect to the bregma as a point of reference. For each animal, a total volume of 2 μl of virus was injected at a rate of 0.5 μl/min using a microinjection pump and 10 μl Hamilton syringe with a 26-gauge needle. For A53T groups, 1 μl (low dose) or 1.34 μl (high dose) of AAV1/2-A53T a-syn (5.1 × 10^12 genomic particles/ml), 0.14 μl of AAV1/2-PDpep1.3-GFP or Scramble1.3-GFP (5.1 × 10^12 genomic particles/ml) and 0.86 μl or 0.52 μl of sterile PBS was injected; for EV groups, 1 μl (low dose) or 1.34 μl (high dose) of AAV1/2-EV (5.1 × 10^12 genomic particles/ml) replaced AAV1/2-A53T. […]
HPLC was performed as described. […] Catecholamines were determined from the supernatant. Values of catecholamines are expressed as ng analyte/mg total protein.

Take DEEIERQLKALG [PDpep1.3]: the “Forelimb asymmetry in cylinder test” value was -28.57 and 24.32 and 52.38 and 33.3333 and 9.524 and -2.857 with A53T a-syn or EV rats [1] (A53T, 3 WPI); -12.5 (2×) and 25.93 and 21.43 and 6.98 with A53T a-syn or EV rats [1] (A53T, 6 WPI); -7.41 and 24.14 and 18.18 and 22.22 and -2.4 and -27.78 and 19.4 in the assay on A53T a-syn or EV rats [1] (A53T, baseline (prior to injection)); 3.448 and -28.5714 and 80.9524 and -6.849 and 10.3448 and -26.6667 and 19.4444 in the assay with A53T a-syn or EV rats [1] (EV, 3 WPI); 20 and -14.29 and 37.5 and -3.23 and 75 and -33.33 and 3.03 with A53T a-syn or EV rats [1] (EV, 6 WPI); 21.95 and -4 and 13.16 and -24.75 and 1.82 and 24.14 and 9.8 with A53T a-syn or EV rats [1] (EV, baseline (prior to injection)). Further, in the assay with A53T a-syn or EV rats [1] (A53T, 6 weeks), the “Forelimb asymmetry” value was “comparable to controls”. Also, the “Effect on neurodegeneration in SN” value with A53T a-syn or EV rats [2] was “neurodegeneration was mitigated”. Also, in the assay with A53T a-syn or EV rats [3], the “Striatal dopamine, DOPAC and HVA” value is reported as “restored compared with the Scramble1.3 condition”.

These data come from paper PMC10115881, “Disrupting the α-synuclein-ESCRT interaction with a peptide inhibitor mitigates neurodegeneration in preclinical models of Parkinson’s disease” (Nature Communications, 2023).
